{"source": "patent US11136295B2", "about": "“D-amphetamine compounds, compositions, and processes for making and using the same” (KemPharm, Inc., priority 2018, dated 2021)", "key": {"[1]": {"assay": "Intravenous pharmacokinetic study in rats (tail vein; plasma d-amphetamine by LC-MS/MS)", "type": "in vivo, rat", "settings": "for AUC0-2 hr / Cmax / Tmax: d-amphetamine in plasma, rat, intravenous (tail vein), 5.6 μmol/kg, sampled to 2 hours", "description": "(§1) Conjugates of d-amphetamine, and d-amphetamine sulfate or lisdexamfetamine dimesylate comparator compound were dissolved in an appropriate vehicle and administered in rats at doses of 5.6 μmol/kg by injecting the solution into the tail vein. Whole blood samples were collected via retro-orbital bleeding at 5 minutes and at 0.25, 0.5, 1 and 2 hours postdose. Blood samples were centrifuged and the resulting plasma samples were collected for analysis of levorphanol concentrations by LC-MS/MS."}, "[2]": {"assay": "Oral pharmacokinetic study in rats (plasma amphetamine by LC-MS/MS)", "type": "in vivo", "settings": "d-amphetamine in plasma; rat, oral gavage, 5.6 μmol/kg; 6-hour time course", "description": "as §1, with “rats via oral gavage” for “rats”, “5.6 μmol/kg.” for “5.6 μmol/kg by injecting the solution into the tail vein.”, “at” for “at 5 minutes and at”, “0.5, 1, 2, 4,” for “0.5, 1”, “and optionally at 3 and 6” for “and 2”, “of amphetamine” for “of levorphanol”"}, "[3]": {"assay": "Intranasal pharmacokinetic study in rats (plasma amphetamine by LC-MS/MS)", "type": "in vivo", "settings": "d-amphetamine in plasma, rat, 4-hour time course"}}, "data": [{"compound": "CCOC(=O)C(C)NC(=O)c1cc[n+](COC(=O)N[C@@H](C)Cc2ccccc2)cc1", "note": "(stereo partly drawn) [AMP-CO2CH2-isonicotinoyl-Ala-OEt, d-amphetamine-CO2CH2-isonicotinoyl-alanine ethyl ester]", "values": [{"measurement": "AUC0-2 hr", "setting": "[1]", "value": 32.4, "unit": "ng·h/mL"}, {"measurement": "Cmax", "setting": "[1]", "value": 24.7, "unit": "ng/mL"}, {"measurement": "Tmax", "setting": "[1]", "value": 31.2, "unit": "min"}, {"measurement": "AUC0-4 hr", "setting": "[2]", "value": 72.8, "unit": "ng·h/mL"}, {"measurement": "AUC0-6 hr", "setting": "[2]", "value": 105.7, "unit": "ng·h/mL"}, {"measurement": "Cmax", "setting": "[2]", "value": 28.5, "unit": "ng/mL"}, {"measurement": "Tmax", "setting": "[2]", "value": 120, "unit": "min"}]}, {"compound": "d-amphetamine-CO2CH2-isonicotinate ethyl ester [AMP-CO2CH2-isonicotinate(Et)]", "values": [{"measurement": "AUC0-2 hr", "setting": "[1]", "value": 26.5, "unit": "ng·h/mL"}, {"measurement": "Cmax", "setting": "[1]", "value": 18.8, "unit": "ng/mL"}, {"measurement": "Tmax", "setting": "[1]", "value": 43.2, "unit": "min"}, {"measurement": "AUC0-4 hr", "setting": "[2]", "value": 75.4, "unit": "ng·h/mL"}, {"measurement": "AUC0-6 hr", "setting": "[2]", "value": 106.6, "unit": "ng·h/mL"}, {"measurement": "Cmax", "setting": "[2]", "value": 26.0, "unit": "ng/mL"}, {"measurement": "Tmax", "setting": "[2]", "value": 90, "unit": "min"}, {"measurement": "AUC0-1 hr", "setting": "[3]", "value": 8.6, "unit": "ng·h/mL"}, {"measurement": "AUC0-4 hr", "setting": "[3]", "value": 32.6, "unit": "ng·h/mL"}, {"measurement": "Cmax", "setting": "[3]", "value": 11.1, "unit": "ng/mL"}, {"measurement": "Tmax", "setting": "[3]", "value": 37.8, "unit": "min"}]}, {"compound": "C[C@@H](Cc1ccccc1)NC(=O)OC[n+]1ccc(C(=O)O)cc1", "note": "[AMP-CO2CH2-isonicotinate, d-amphetamine-CO2CH2-isonicotinate]", "values": [{"measurement": "melting point", "value": "168 to 170", "unit": "°C"}]}, {"compound": "CC(C)[C@H](NC(=O)c1cc[n+](COC(=O)N[C@@H](C)Cc2ccccc2)cc1)C(N)=O", "note": "[AMP-CO2CH2-isonicotinoyl-Val-NH2, d-amphetamine-CO2CH2-isonicotinoyl-valinamide]", "values": [{"measurement": "exposure to d-amphetamine after intravenous administration compared to the nicotinoyl analogue", "setting": "[1]; intravenous, compared to AMP-CO2CH2-nicotinoyl-Val-NH2, FIG. 32", "value": "decreases exposure to d-amphetamine"}]}]}
